The series can be described thus: in vitro. The note with it: rat, gh3-tre-luc cells.

Structures can show the parent of a compound that is named as a salt.

Broadly, the CC50 is the concentration at which the toxic effect on the cells reaches its halfway point. Read a low CC50 as greater toxicity to the cells. The compound `CCCCCCCCCCO[C@@H]1O[C@H](CO)[C@@H](O)[C@H](O)[C@H]1O` [Decyl beta-D-glucopyranoside] gave a CC50 at 24 h (AC50 (uM) modified / 1000) of over 90 µM.

`COc1nc(NC(C)C)nc(NC(C)C)n1` [Prometon] showed a CC50 at 24 h (AC50 (uM) modified / 1000, Tox21_110001=Tox21_202098, viability, 1 nM T3 present, 24 h) of over 90 µM.

In turn, `CC(=O)[C@H]1CC[C@H]2[C@@H]3C[C@H](C)C4=CC(=O)CC[C@]4(C)[C@H]3[C@@H](O)C[C@]12C` [Medrysone] returned a CC50 at 24 h (AC50 (uM) modified / 1000) of over 20 µM.

In turn, `NCCO` [2-Hydroxyethylammonium formate] registered a CC50 at 24 h (AC50 (uM) modified / 1000) of over 90 µM.

Regarding `O=C=NC1CCC(CC2CCC(N=C=O)CC2)CC1` (stereo not shown) [1,1-Methylenebis(4-isocyanatocyclohexane)], the CC50 at 24 h (AC50 (uM) modified / 1000) is over 90 µM.

Regarding `CCCCC[Si](OCC)(OCC)OCC` [Triethoxypentylsilane], the CC50 at 24 h (AC50 (uM) modified / 1000) was over 90 µM.

As for `CC1(C)CC(N)CC(C)(C)N1` [2,2,6,6-Tetramethylpiperidin-4-amine], for the setting “AC50 (uM) modified / 1000”, the CC50 at 24 h was over 90 µM.

On to `COc1ccc2c(c1OC)CN1CCc3cc4c(cc3[C@@H]1C2)OCO4` [Canadine], for which, under “AC50 (uM) modified / 1000”, the CC50 at 24 h is over 20 µM.

`C[N+]1(CCCCC[N+]2(C)CCCC2)CCCC1` [Pentolinium ditartrate] gave a CC50 at 24 h (AC50 (uM) modified / 1000) of over 50 µM.

`O=C(O)c1ccc2c(c1)nc(C(=O)NC1CCN(C3CC3)CC1)n2Cc1cc(-c2ccc(Cl)s2)on1` [AVE3247] registered a CC50 at 24 h (AC50 (uM) modified / 1000) of over 20 µM.

`CCOC(=O)c1ccc(OCCN2C[C@H](O)[C@@H](O)[C@H](O)[C@H]2CO)cc1` [Emiglitate]: for the setting “AC50 (uM) modified / 1000”, the CC50 at 24 h was over 50 µM.

For the compound `O=C(CCl)c1ccccc1` [2-Chloroacetophenone], the CC50 at 24 h is over 90 µM (AC50 (uM) modified / 1000, Tox21_110001=Tox21_202075, viability, 1 nM T3 present, 24 h) and 62.3 µM (AC50 (uM) modified / 1000, Tox21_110001=Tox21_300045, viability, 1 nM T3 present, 24 h).

In the case of `CCCCCCCCCOC(C)=O` [Nonyl acetate], for the setting “AC50 (uM) modified / 1000”, the CC50 at 24 h was over 90 µM.

`C1N2CN3CN1CN(C2)C3` [Methenamine] showed a CC50 at 24 h (AC50 (uM) modified / 1000) of over 50 µM.

`CC1(C)C(=O)N(Cl)C(=O)N1Cl` [1,3-Dichloro-5,5-dimethylhydantoin]: the CC50 at 24 h (AC50 (uM) modified / 1000) is over 90 µM.

In the case of `COc1cccc(C(=O)NN(C(=O)c2cc(C)cc(C)c2)C(C)(C)C)c1C` [Methoxyfenozide], the CC50 at 24 h (AC50 (uM) modified / 1000) is over 90 µM.

For the setting “AC50 (uM) modified / 1000, Tox21_110001=Tox21_200321, viability, 1 nM T3 present, 24 h”, `O=C(O)c1cc(Cl)ccc1Cl` [2,5-Dichlorobenzoic acid] showed a CC50 at 24 h of over 90 µM.

`COCCCOc1ccnc(C[S+]([O-])c2nc3ccccc3[nH]2)c1C` (stereo not shown) [Rabeprazole sodium] registered a CC50 at 24 h (AC50 (uM) modified / 1000) of over 90 µM.

Compound `CN[C@@]1(c2ccccc2Cl)CCCCC1=O` [(+)-Ketamine] gave a CC50 at 24 h (AC50 (uM) modified / 1000) of over 50 µM.

For `CCCCCC(=O)OCCc1ccccc1` [2-Phenylethyl hexanoate], under “AC50 (uM) modified / 1000”, the CC50 at 24 h is over 90 µM.

The compound `CCCCCCCC/C=C\CCCCCCCC(=O)OCC(O)CO` (stereo not shown) [Glyceryl monooleate] returned a CC50 at 24 h (AC50 (uM) modified / 1000) of over 90 µM.

For the compound `CCOC(=O)c1ccc(N(C)C)cc1` [Parbenate], the CC50 at 24 h (AC50 (uM) modified / 1000) was over 90 µM.

The compound `CC1(C)CCC(Cc2ccc(Cl)cc2)C1(O)Cn1cncn1` (stereo not shown) [Metconazole] showed a CC50 at 24 h (AC50 (uM) modified / 1000) of 82.6 µM. This lies in the double-digit micromolar range.

`CCN(CC)CCOC(=O)C(O)(c1ccccc1)c1ccccc1` [Benactyzine] came in with a CC50 at 24 h (AC50 (uM) modified / 1000) of over 50 µM.

In the case of `C=CCOC(=O)c1ccccc1N` [Allyl anthranilate], the CC50 at 24 h (AC50 (uM) modified / 1000, Tox21_110001=Tox21_201129, viability, 1 nM T3 present, 24 h) was over 90 µM.

Under “AC50 (uM) modified / 1000”, `CCCCc1ncc(/C=C(\Cc2cccs2)C(=O)O)n1Cc1ccc(C(=O)O)cc1` [Eprosartan mesylate] came in with a CC50 at 24 h of over 50 µM.

In the case of `Oc1ccc(Cl)cc1C1CCCC1` [4-Chloro-2-cyclopentylphenol], under “AC50 (uM) modified / 1000”, the CC50 at 24 h is 55.3 µM.

In the case of `CCC1(C)CC(=O)NC(=O)C1` [Bemegride], the CC50 at 24 h (AC50 (uM) modified / 1000, Tox21_110001=Tox21_110352, viability, 1 nM T3 present, 24 h) is over 20 µM.

Compound `C=C(C)C(=O)OCCN(C)C` [2-(Dimethylamino)ethyl methacrylate] yielded a CC50 at 24 h (AC50 (uM) modified / 1000) of over 90 µM.

As to `C[C@]12CC[C@H]3[C@@H](CCC4=C(O)C(=O)CC[C@@H]43)[C@@H]1CC[C@@H]2OC(=O)CCC1CCCC1` [Oxabolone cipioncate], the CC50 at 24 h (AC50 (uM) modified / 1000, Tox21_110001=Tox21_112760, viability, 1 nM T3 present, 24 h) was over 50 µM.

`NS(=O)(=O)c1cc2c(cc1Cl)NC(CC1CCCC1)NS2(=O)=O` (stereo not shown) [Cyclopenthiazide]: the CC50 at 24 h (AC50 (uM) modified / 1000) is over 20 µM.

For the setting “AC50 (uM) modified / 1000”, `CC(C)(Cl)Cl` [2,2-Dichloropropane] yielded a CC50 at 24 h of over 90 µM.

On to `CCCN(CCC)c1c([N+](=O)[O-])cc(C(F)(F)F)c(N)c1[N+](=O)[O-]` [Prodiamine], for which the CC50 at 24 h (AC50 (uM) modified / 1000) worked out at 14.5 µM.

As to `Nc1nnc(-c2ccc([N+](=O)[O-])o2)o1` [2-Amino-5-(5-nitro-2-furyl)-1,3,4-oxadiazole], it took 59 µM to reach half-maximal cytotoxicity (AC50 (uM) modified / 1000) (CC50 at 24 h).

With `CCn1ccnc1CC1COc2ccccc2O1` (stereo not shown) [Imiloxan], the CC50 at 24 h (AC50 (uM) modified / 1000) was over 50 µM.

In turn, `CC12CC3CC(C)(C1)CC(N)(C3)C2` [Memantine] gave a CC50 at 24 h (AC50 (uM) modified / 1000) of 38.1 µM.

`CN(C)c1ccc(N=NS(=O)(=O)O)cc1` [Fenaminosulf]: the CC50 at 24 h (AC50 (uM) modified / 1000) is over 90 µM.

The compound `Cc1c(N)cccc1[N+](=O)[O-]` [2-Methyl-3-nitroaniline] returned a CC50 at 24 h (AC50 (uM) modified / 1000) of over 90 µM.

`NC(=O)[C@@H]1C[C@]2(NC(=O)NC2=O)c2cc(F)ccc2O1` [Fidarestat] registered a CC50 at 24 h (AC50 (uM) modified / 1000) of over 50 µM.

The compound `Cc1cc(SCc2sc(-c3ccc(C(F)(F)F)c(F)c3)nc2C)ccc1OCC(=O)O` [{4-[({2-[3-Fluoro-4-(trifluoromethyl)phenyl]-4-methyl-1,3-thiazol-5-yl}methyl)sulfanyl]-2-methylphenoxy}acetic acid] displayed a CC50 at 24 h (AC50 (uM) modified / 1000) of 64.8 µM.

Under “AC50 (uM) modified / 1000”, `CSCc1cnccn1` [(Methylthio)methylpyrazine] returned a CC50 at 24 h of over 200 µM.

On to `CC(=O)c1ccc(Cl)c(Cl)c1Cl` [2',3',4'-Trichloroacetophenone], for which the CC50 at 24 h (AC50 (uM) modified / 1000) was over 90 µM.

`Oc1ccc(-c2ccc(O)cc2)cc1` [4,4'-Biphenyldiol] showed a CC50 at 24 h (AC50 (uM) modified / 1000) of over 90 µM.

`O=C1OC(OC(=O)c2cccnc2Nc2cccc(C(F)(F)F)c2)c2ccccc21` (stereo not shown) [Talniflumate] displayed a CC50 at 24 h (AC50 (uM) modified / 1000) of over 50 µM.

With `OCc1c2ccccc2cc2ccccc12` [9-Anthracenemethanol], where the note is “AC50 (uM) modified / 1000”, the CC50 at 24 h is over 90 µM.

Compound `BrC(Br)Br` [Bromoform] came in with a CC50 at 24 h (AC50 (uM) modified / 1000, Tox21_110001=Tox21_200189, viability, 1 nM T3 present, 24 h) of over 90 µM.

Consider `Cc1ncsc1CCCl` [Clomethiazole], for which, where the note is “AC50 (uM) modified / 1000, Tox21_110001=Tox21_110931, viability, 1 nM T3 present, 24 h”, the CC50 at 24 h is over 50 µM.

With `Nc1cccc(O)c1` [3-Aminophenol], the CC50 at 24 h (AC50 (uM) modified / 1000) was over 90 µM.

As for `O=C1CCCC1` [Cyclopentanone], the CC50 at 24 h (AC50 (uM) modified / 1000) is over 90 µM.

Where the note is “AC50 (uM) modified / 1000”, `Cc1ccc(C(=O)c2cc(O)c(O)c([N+](=O)[O-])c2)cc1` [Tolcapone] showed a CC50 at 24 h of 72.4 µM.

Regarding `C=C(C)C(=O)OCCNC(C)(C)C` [2-(tert-Butylamino)ethyl 2-methylprop-2-enoate], under “AC50 (uM) modified / 1000”, the CC50 at 24 h was over 90 µM.

Take `CC(=O)c1ccc(O)cc1` [4-Hydroxyacetophenone]: where the note is “AC50 (uM) modified / 1000”, the CC50 at 24 h was over 90 µM.

`CCNC(=O)NCc1cccc(Cl)c1` [Lozilurea]: under “AC50 (uM) modified / 1000”, the CC50 at 24 h is over 50 µM.

`CCOc1nc(F)cc2nc(S(=O)(=O)Nc3c(Cl)cccc3Cl)nn12` [Diclosulam]: the CC50 at 24 h (AC50 (uM) modified / 1000) is over 90 µM.

`C[Si](C)(C)C` [Tetramethylsilane] returned a CC50 at 24 h (AC50 (uM) modified / 1000) of over 90 µM.

With `CNC(=O)Oc1ccccc1C(C)C` [Isoprocarb], the CC50 at 24 h (AC50 (uM) modified / 1000, Tox21_110001=Tox21_301361, viability, 1 nM T3 present, 24 h) is over 90 µM.

`C=C(C)[C@@H]1CC[C@@H](C)C[C@H]1O` [Isopulegol] had a CC50 at 24 h (AC50 (uM) modified / 1000) of over 90 µM.

`O=[N+]([O-])C(CO)(CO)CO` [2-(Hydroxymethyl)-2-nitro-1,3-propanediol] registered a CC50 at 24 h (AC50 (uM) modified / 1000) of over 90 µM.

`O=C(OCCCCCOC(=O)c1ccccc1)c1ccccc1` [Pentane-1,5-diyl dibenzoate] gave a CC50 at 24 h (AC50 (uM) modified / 1000) of over 90 µM.

In the case of `CCOC(=O)OC(C)OC1=C(C(=O)Nc2ccccn2)N(C)S(=O)(=O)c2ccccc21` (stereo not shown) [Ampiroxicam], the CC50 at 24 h (AC50 (uM) modified / 1000) was over 50 µM.

The record behind these values is PMC6792352, “Limited Chemical Structural Diversity Found to Modulate Thyroid Hormone Receptor in the Tox21 Chemical Library” (Environmental Health Perspectives, 2019).
